The assay deals with T1, human Oxytocin (hOT) receptor (Homo sapiens, UniProt P30559).
T1 construct: expressed in transfected cells; host or cells: HEK293EBNA (membranes)
T1 sequence (P30559 1-389): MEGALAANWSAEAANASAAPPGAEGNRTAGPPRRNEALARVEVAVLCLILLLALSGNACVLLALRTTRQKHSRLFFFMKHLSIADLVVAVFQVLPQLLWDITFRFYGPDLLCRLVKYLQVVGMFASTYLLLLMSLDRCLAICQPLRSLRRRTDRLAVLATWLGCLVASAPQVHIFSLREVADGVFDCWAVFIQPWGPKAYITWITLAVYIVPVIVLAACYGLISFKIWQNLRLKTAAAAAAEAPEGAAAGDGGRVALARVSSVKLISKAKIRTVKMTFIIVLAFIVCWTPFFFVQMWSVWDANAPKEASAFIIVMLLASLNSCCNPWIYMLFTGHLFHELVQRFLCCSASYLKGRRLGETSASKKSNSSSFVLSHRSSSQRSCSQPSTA
The assay can be described thus: In vitro competition binding assay on hOT receptor with scintillation proximity assay ([125I]-OVTA). The settings on record: membranes from HEK293EBNA cells expressing the hOT receptor; 0.2 nM [125I]-OVTA; SPA; read-out: Binding Affinity hOT-R (Ki [nM]). The method, then:
The compounds according to formula (I) may be subjected to the following assays: • a) In Vitro Competition Binding Assay on hOT Receptor with Scintillation Proximity Assay (11).
This assay allows to determine the affinity of the test compounds for the human Oxytocin (hOT) receptor. Membranes from HEK293EBNA (cells expressing the hOT receptor) were suspended in buffer containing 50 mM Tris-HCl, pH 7.4, 5 mM MgCl2 and 0.1% BSA (w/v). The membranes (2-4 μg) were mixed with 0.1 mg SPA bead coated with wheat-germ aglutinin (WGA-PVT-Polyethylene Imine beads from Amersham) and 0.2 nM of the radiolabelled [^125I]-OVTA (OVTA being Ornithin Vasoactive, an analogue of OT for competitive binding experiments). Non-specific binding was determined in the presence of 1 μM Oxytocin. The total assay volume was 100 μl. The plates (Corning® NBS plate) were incubated at room temperature for 30 min and counted on a Mibrobeta® plate scintillation counter. Competitive binding was performed in presence of compounds of formula (I) at the following concentrations: 30 μM, 10 μM, 1 μM, 300 nM, 100 nM, 10 nM, 1 nM, 100 pM, 10 pM. The competitive binding data were analysed using the iterative, nonlinear, curve-fitting program, “Prism” (GraphPad Software, Inc).
The ability of pyrrolidine derivatives of formula (I) to inhibit the binding of ^125I-OVTA to the OT-receptor was assessed using the above described in vitro biological assay. Representative values for some example compounds are given in Table I where the binding affinity of test compounds from the above examples is expressed by the inhibition constant (Ki; nM). From these values, it can be derived that said test compounds according to formula (I) do show a significant binding to the oxytocin receptor.

Take `CON=C1C[C@@H](CC(=O)OC)N(C(=O)c2ccc(-c3ccccc3)cc2)C1` [Example 1, methyl [(2S,4EZ)-1-(biphenyl-4-ylcarbonyl)-4-(methoxyimino)pyrrolidin-2-yl]acetate]: the inhibition constant (Ki) was 37 nM.

Turning to `CON=C1CC(CCC(=O)OC)N(C(=O)c2ccc(-c3ccccc3)cc2)C1` [Example 2, methyl 3-[(2R,4EZ)-1-biphenyl-4-ylcarbonyl)-4-(methoxyimino)pyrrolidin-2-yl]propanoate], the Ki amounted to 144 nM.

With `CON=C1C[C@@H](CC(=O)OC2CCCC2)N(C(=O)c2ccc(-c3ccccc3)cc2)C1` [Example 3, cyclopentyl [(2S,4EZ)-1-(biphenyl-4-ylcarbonyl)-4-(methoxyimino)pyrrolidin-2-yl]acetate], the Ki stood at 46 nM.

Regarding `CON=C1CC(CC(=O)NC[C@H](O)c2ccccc2)N(C(=O)c2ccc(-c3ccccc3)cc2)C1` (stereo partly drawn) [Example 5], the Ki worked out at 67 nM.

For the molecule `CON=C1C[C@@H](CCC(=O)NC[C@@H](O)c2ccccc2)N(C(=O)c2ccc(-c3ccccc3)cc2)C1` [Example 6, 3-[(2R,4EZ)-1-(biphenyl-4-ylcarbonyl)-4-(methoxyimino)pyrrolidin-2-yl]-N-[(2S)-2-hydroxy-2-phenylethyl]propanamide], the Ki was found to be 77 nM.

For `CON=C1CC(CC(=O)N2CCOCC2)N(C(=O)c2ccc(-c3ccccc3)cc2)C1` [Example 9, (3EZ,5S)-1-(biphenyl-4-ylcarbonyl-5-(2-morpholin-4yl-2-oxoethyl)pyrrolidin-3-one O-methyloxime], the Ki is 142 nM.

The values above are taken from US7557136B2, “Pyrrolidine derivatives as oxytocin antagonists” (Laboratoires Serono SA, priority 2003, dated 2009).
